Results published in patent US6716867B1, “Use of dexmedetomidine for ICU sedation” (priority 1998, dated 2004).
Several values for one entry are separate records, joined by “and”; a condition that tells them apart may be missing. Equal values may be shown once. Read-outs that look alike come from different tables or passages of the source.

Columns and labels:
ICU patients [1] = assay: Phase III multicenter ICU sedation trial, Trial 2 (midazolam and morphine as rescue)
From the text: (§1) Two Phase III dexmedetomidine multicenter clinical trials (Trial 1 and Trial 2) have been conducted in ICU sedation in Europe and Canada. Each trial had two parts, i.e., an open-label part (Part I) and double-blind, randomized, placebo-controlled part (Part II). The trials were designed to evaluate the reduction in requirements for ICU sedation (as measured by administration of other sedative/analgesic agents) in patients receiving dexmedetomidine. The use of propofol and morphine for sedation and analgesia, respectively, was evaluated in one trial (Trial 1), and midazolam and morphine in the other trial (Trial 2).
(§2) In Part I of the trials patients were to be administered a 6.0 μg/kg/h loading dose of dexmedetomidine over a 10-minute period, followed by an initial maintenance infusion of 0.4 μg/kg/h. During Part II of the study, patients were randomly assigned to receive either placebo (0.9% sodium chloride solution) or dexmedetomidine. […] The dexmedetomidine dosing protocol was the same as in the Part I of the study. […] Following extubation, the infusion rate was to be adjusted to achieve a Ramsay Sedation Score of 2 or higher.
(§3) During the 10-minute loading dose, additional medication was to be avoided, but propofol (0.2-mg/kg bolus) in Trial 1 and midazolam (1-mg bolus) in Trial 2 could be given if necessary. During dexmedetomidine infusion, rescue medications were limited to propofol (0.2 mg/kg IV boluses) in Trial 1 and midazolam ([…]) in Trial 2 for sedation and morphine for pain (2-mg IV boluses). After extubation, paracetamol was to be permitted for pain as clinically indicated. Propofol and midazolam were to be given only after increasing the dexmedetomidine infusion rate. Dexmedetomidine administration in Parts I and II was to begin within 1 hour of admission to the ICU and to be continued for 6 hours after extubation to a maximum of 24 hours total study drug infusion. Patients were observed and assessed for an additional 24 hours after cessation of dexmedetomidine.

[2] = tested on: postsurgical ICU patients
From the text: as §1, §2, §3
The following 16 cases are from the above mentioned Part II of trials 1 and 2.

[3] = tested on: postoperative coronary artery bypass graft(s) patients (CABG), requiring sedation in the ICU
[4] = tested on: postoperative CABG patients requiring mechanical ventilation in the ICU
Protocol: A double-blind, randomized, placebo-controlled study was conducted to evaluate the efficacy, safety, and titratability of dexmedetomidine in mechanically ventilated patients requiring sedation in the ICU. […] Twelve adult postoperative CABG patients requiring mechanical ventilation in the ICU who met the study selection criteria were eligible for participation.
The selection criteria were as follows. The patients required sedation for mechanical ventilation for a minimum of 8 hours following surgery, followed by continued sedation for 6 hours after extubation. The patients were not to have been intubated longer than 24 hours to be evaluable for the test. The patients received only morphine for management for pain and received none of the following medications during study drug administration: sedating agents other than midazolam, neuromuscular blocking agents except for insertion of the endotrachael tube, epidural or spinal analgesic/anesthetic agents.
Safety was evaluated through the monitoring of adverse events, cardiac monitoring, laboratory tests, vital signs, oxygen saturation, and concomitant medications.
Twelve patients were randomly assigned to receive either dexmedetomidine or placebo with rescue treatment for sedation with midazolam, as clinically indicated. Patients randomized to dexmedetomidine were to receive a 10-minute loading dose of 6.0 μg/kg/h, followed by an initial maintenance infusion. The rate of maintenance infusion was 0.4 μg/kg/h. The maintenance rate of infusion could be titrated in increments of 0.1 μg/kg/h to achieve and maintain a Ramsey Sedation Score of 3 or higher. The range for the maintenance infusion was to be kept between 0.2 and 0.7 μg/kg/h. Dexmedetomidine administration was to begin within one hour after admission to the ICU and continued until 6 hours after extubation. […] The placebo was 0.9% sodium chloride solution administered the same way dexmedetomidine was administered.

ICU patients [5] = assay: Phase III multicenter ICU sedation trial, Trial 1 (propofol and morphine as rescue); details: for dexmedetomidine-treated patients who died: none considered related to dexmedetomidine
From the text: as §1, §2, §3

[6] = case 4, immediately after extubation

## Cc1cccc([C@H](C)c2c[nH]cn2)c1C [dexmedetomidine, (+)-(S)-4-[1-(2,3-dimethylphenyl)ethyl]-1H-imidazole]
ICU patients [1]; Trial 2
  midazolam required for sedation, vs placebo: significantly less
  morphine required for pain, vs placebo: significantly less
ICU patients [1]; Trial 2, Part I and Part II, five placebo-treated patients died
  deaths among dexmedetomidine-treated patients: No deaths
ICU patients [1]; Trial 2, vs placebo-treated patients who received midazolam
  speed of achieving sedation levels: more quickly
ICU patients [1]; in vivo
  changes in systolic blood pressure, diastolic blood pressure and heart rate: consistent with the known pharmacological effect of α2-agonists
  respiratory depression: no clinically apparent respiratory depression
  safety and tolerability: safe and well tolerated
[2]; case 1, 5 minutes before extubation
  morphine doses required while receiving dexmedetomidine: one
[2]; case 1, after the first hour
  Ramsay Sedation Score: 3
[2]; case 1, during the first hour
  Ramsay Sedation Score: 6
[2]; case 1, later
  Ramsay Sedation Score: 2
[2]; case 2, during the 12-hour infusion 0.2 to 0.7 μg/kg/h
  analgesic requirement: required no morphine or other analgesic
[2]; case 3, after the first hour
  Ramsay Sedation Score: 4
[2]; case 3, during the first hour (baseline score, fully anaesthetized after surgery)
  Ramsay Sedation Score: 6
[2]; case 3, maintenance 0.2 to 0.3 μg/kg/h
  midazolam and morphine requirement: required no midazolam or morphine
[2]; case 3, subsequently
  Ramsay Sedation Score: 3
[2]; [6]
  midazolam required: 2 mg
  morphine required: 2 mg
[2]; case 5, after dexmedetomidine infusion was discontinued
  morphine dose required: 76 mg
[2]; case 5, at 46 minutes and again at 66 minutes after start of infusion
  midazolam dose received: 2 mg
[2]; case 5, during dexmedetomidine infusion
  initial postoperative morphine requirements: 24 mg
[2]; case 6
  morphine requirement while on dexmedetomidine: required no morphine
[2]; case 6, after extubation and cessation of infusion, before discharge from the ICU
  morphine required: 4 mg
[2]; case 6, agitation over endotracheal tube at maximum allowable dose
  midazolam administered, total: 16 mg
[2]; case 6, first few hours after return to the ward
  morphine required: ~50 mg
[2]; case 6, first hours of infusion
  morphine and midazolam requirement: required no morphine or midazolam
[2]; case 6, maintenance 0.4 to 0.7 μg/kg/h
  Ramsey Sedation Score: approximately 4
[2]; case 7, 0.4 titrated to 0.7 μg/kg/h
  Ramsey Sedation Score: approximately 4
[2]; case 7, first 6 hours in the ICU, graft failure with ongoing bleeding
  morphine requirements: fluctuated markedly
[2]; case 8, after propofol discontinued at 3 hours, dexmedetomidine tapered to 0.2 μg/kg/h
  propofol and morphine requirement: No additional propofol or morphine was required
[2]; case 8, dexmedetomidine 0.7 μg/kg/h with propofol 4 mg/kg/h, oversedated
  Ramsey Sedation Score: 6
[2]; case 9, while receiving dexmedetomidine
  Ramsey Sedation Score: 3
[2]; case 10, during the infusion
  additional sedative and analgesia requirement: required no additional sedatives and very little analgesia
[2]; case 10, intubated, infusion 0.4-0.7 μg/kg/h
  Ramsey Sedation Score: 4
[2]; case 11, history of excessive alcohol intake, infusion between 0.3 and 0.7 μ/kg/h
  additional sedative requirement: no additional sedatives were required
[2]; case 12, high preoperative anxiety, infusion 0.2-0.5 μg/kg/h
  anxiolysis and orientation: calm, had no fear or apprehension, and was well oriented
[2]; case 13, FIG. 2
  achievement of desired level of sedation: very easily achieved with little dose adjustment
[2]; case 13, at 6 hours into the study period
  morphine sulfate required (single dose): 2 mg
[2]; case 14, before extubation
  opiate requirement: no opiate was required
[2]; case 14, first half hour
  Ramsey Sedation Score: 6
[2]; case 14, moderate pain after extubation
  morphine required (single injection): 2 mg
[2]; case 14, remainder of ICU stay after titration (score of 2 or 3)
  Ramsey Sedation Score: 2 and 3
[2]; case 15, infusion titrated
  Ramsey Sedation Score: approximately 3
[2]; in vivo
  PaCO2: stable
  blood pressure: transient increase
  blood pressure (hypotension): 70/40
  haemodynamic instability: No evidence of haemodynamic instability
  hemodynamic profile: smooth without hypotension or episodes of bradycardia
  hypotension: one episode of moderate hypotension
  respiratory depressant effect: absence of a respiratory depressant effect
  respiratory depression: no respiratory depression
[3]; 12 patients, infusion 0.2 to 0.7 μg/kg/h
  patients who required morphine for pain: Two
[3]; 12 patients, circulatory failure and myocardial infarction, infarction had little or no temporal relationship to dexmedetomidine
  patients with serious adverse events: One
[3]; dexmedetomidine as only pharmaceutical
  quality of sedation: conveniently sedated, hemodynamically stable, and remained easily arousable
[3]; during administration of dexmedetomidine
  blood pressure and heart rate variability: decreased
[3]; iv loading 6 μg/kg/h over 10 min, then maintenance 0.2 or 0.4 μg/kg/h
  time until clinical effects of sedation became evident: 15 to 30 min
[4]; human, in vivo
  midazolam for sedation or morphine for pain required, vs placebo: significantly less
  respiratory depression: no clinically apparent respiratory depression
  safety and tolerability: safe and well tolerated
[4]; six dexmedetomidine-sedated patients, difference to placebo in mean total midazolam dose p=0.010
  need for midazolam rescue for sedation: did not require any midazolam
[4]; vs five of six on placebo, mean total morphine dose difference p=0.040
  patients who required morphine for management of pain: One of six
ICU patients [5]; Trial 1
  morphine required for pain, vs placebo: significantly less
  propofol required for sedation, vs placebo: significantly less
ICU patients [5]; Trial 1, Part I
  dexmedetomidine-treated patients who died: three
ICU patients [5]; Trial 1, Part II, one placebo-treated patient died
  dexmedetomidine-treated patients who died: three
ICU patients [5]; Trial 1, vs placebo-treated patients who received propofol
  speed of achieving sedation levels: more quickly
ICU patients [5]; in vivo
  changes in systolic blood pressure, diastolic blood pressure and heart rate: consistent with the known pharmacological effect of α2-agonists
  respiratory depression: no clinically apparent respiratory depression
  safety and tolerability: safe and well tolerated
